Data taken from paper PMC3249654 (The Open Virology Journal, 2011).
Values joined by “and” are separate entries in the source; they are usually repeats but may differ in a detail not shown here. Equal values may be shown once. “Also recorded” adds a separate entry of the source. Read-outs that look alike come from different tables or passages of the source.

Experiments:
[1] = system: M2 of influenza A(H1N1) viruses
[2] = system: influenza virus; conditions: human, in vivo; cited from earlier work
[3] = system: NA enzyme activity of influenza A(H1N1) viruses; format: biochemical, influenza A(H1N1) virus

NC12CC3CC(CC(C3)C1)C2 [amantadine]
susceptibility of oseltamivir resistant A(H1N1) viruses to amantadine / M2I [1]: still susceptible

CCOC(=O)C1=C[C@@H](OC(CC)CC)[C@H](NC(C)=O)[C@@H](N)C1 [oseltamivir]
oseltamivir-resistance emerged in treated children [2]: 18% and 16%
proportion of viruses resistant against oseltamivir, phenotypic assessment [3]: 29%

CC(=O)N[C@H]1[C@H]([C@H](O)[C@H](O)CO)OC(C(=O)O)=C[C@@H]1N=C(N)N [zanamivir]
susceptibility of oseltamivir resistant A(H1N1) viruses to zanamivir [3]: None of influenza A(H1N1) oseltamivir resistant viruses tested was resistant; also recorded: sensitive; also recorded: still susceptible
IC50 ([3]; read-out: baseline zanamivir IC50-value (mean±SD)): 1.05 nM and 0.98 nM
IC50 ([3]; read-out: mean IC50 ± SD): 0.87 ± 0.22 nM
